The source of these data is publication PMC2714422 (Journal of medicinal chemistry, 2009).

“Also recorded” adds a separate entry of the source. Where only a bound is given, the exact number is not on record here.

The conditions of series [1]: hydrochloride salt form of 5; prior formulation work, ref not given; cited from earlier work.
The next series has as its system SK-Mel cells. Kind of series: Cellular polyamine levels in SK-Mel cells, compound alone. The format is cell-based, human. The settings on record: 10 µM for 24 hrs.
Series [2] relates to squamous cell carcinoma (SCC) tumors. Kind of series: K6/ODC transgenic mouse squamous cell carcinoma model. The format is in vivo.
A further series relates to MDA-MB-231 cells. Briefly: Cellular polyamine depletion, PTI plus DFMO. The format is cell-based, human. Conditions: 5 days, 30 µM 5 or 0.1 µM 11 with 5.0 mM DFMO, 0.5 µM spermidine, 1.0 mM aminoguanidine.
The mark [3] stands for this setting: DFMO 0.5% in drinking water + 0.5 mg/kg 11 i.p. twice daily, 4 weeks.

Consider `NCCCC[C@@H](N)C(=O)NCCCNCCCCNCCCN` [Compound 5, D-Lys-Spm], for which the “oral bioavailability, hydrochloride salt form” value in series [1] is on record as < 1%.

As for `CCCCCCCC(=O)NCCCC[C@H](N)C(=O)NCCCNCCCCNCCCN` [Compound 8], in the series on SK-Mel cells, the “level of cellular polyamines, compound added alone” value is listed as “none of these agents influenced the level of cellular polyamines”.

For the compound `CCCCCCCCCCCCCCCC(=O)NCCCC[C@H](N)C(=O)NCCCNCCCCNCCCN` [Compound 10, L-Lys-ε-(palmitoyl)-N^1-spermine], the “level of cellular polyamines, compound added alone” value in the series with SK-Mel cells was “none of these agents influenced the level of cellular polyamines”.

Regarding `CCCCCCCCCCCCCCCC(=O)NCCCC[C@@H](N)C(=O)NCCCNCCCCNCCCN` [Compound 11, D-Lys-ε-(palmitoyl)-N^1-spermine], the “toxicity at efficacious dose level” value in series [2] (11 at 0.5 mg/kg i.p. twice daily with DFMO, mice) is “no apparent toxicity”. Besides, in series [2] (setting [3]), the “SCCs with complete or near-complete responses (>95% volume reduction)” value was found to be 71% and the “number of SCCs with complete responses out of 17” value stood at 9. Besides, the “polyamine levels of the cell, combination with DFMO” value in the series on MDA-MB-231 cells is “potent reduction in the polyamine levels”.

Turning to `NCCC[C@](N)(C(=O)O)C(F)F` [DFMO, α-difluoromethylornithine, reference compound], the “tumor growth effect of DFMO alone” value in series [2] (DFMO alone in drinking water) was “moderate tumor growth inhibitory effects; also recorded: weak effect”. The “DFMO alone treated tumors that re-grew” value in series [2] (DFMO alone, 6 weeks off-treatment after 4 week treatment) is 11 of 12.
